From paper PMC9743128, “Phenotype-based screening rediscovered benzopyran-embedded microtubule inhibitors as anti-neuroinflammatory agents by modulating the tubulin–p65 interaction” (Experimental & Molecular Medicine, 2022)
Like-named read-outs stand apart in the source and are kept apart here.

Tests used:
[1] = tested on: LPS-mediated NO release in BV-2 microglial cells; experiment: Griess assay: cellular NO release after LPS treatment; type: cell-based, murine; conditions: for IC50: 100 ng/mL LPS, 24 h
Experimental: Cellular secretion of nitric oxide (NO) was quantified with the Griess assay. BV-2 cells were seeded on a clear flat bottom TC-treated 96-well plate (Corning; #3598) and sealed with breathable sealing tape (Axygen; BF-400-S). After 18 h, BV-2 cells were treated with compounds in the absence or presence of 100 ng/mL LPS (Sigma; L4391). After 24 h, 50 μL of the cell culture media was mixed with the same volume of Griess reagent {0.1% naphthylethylenediamine dihydrochloride (Sigma; #222488) and 1% sulfanilamide (Sigma; S9251) in 4% phosphoric acid (Daejung; #6532-4405)}. Absorbance at 550 nm was measured using a microplate reader (BioTek; Synergy). Sodium nitrite (Alfa Aesar; A18668) was used for standard curve generation.
Microglia are tissue-resident macrophages involved in CNS immunosurveillance[3],[39]. Microglial activation induces proinflammatory cytokine tumor necrosis factor α (TNF-α) expression, resulting in neural toxicity[5],[6]. Therefore, the inhibition of microglial activation is critical for regulating neuroinflammation. To discover anti-neuroinflammatory NCEs, we monitored the cellular release of nitric oxide (NO) in response to lipopolysaccharide (LPS) treatment as a mimic of pathogenic activation of innate immune systems upon compound treatment in BV-2 cells using the Griess assay.

[2] = tested on: TNF-α secretion in BV-2 cells; experiment: TNF-α ELISA of culture medium after LPS; type: cell-based, murine; conditions: 10 μM
Experimental: BV-2 and RAW264.7 cells were treated with compounds in the absence or presence of LPS (100 ng/ml). After 24 h, TNF-α levels in the culture medium were measured using a TNF-α ELISA kit (R&D Systems; DY410) according to the manufacturer’s protocol. Briefly, capture antibodies were coated on 96-well Maxisorp Nunc-Immuno plates (Thermo; #439454) for 1 h and washed with PBS containing 0.05% Tween-20 (PBST) three times. The plates were blocked with 1% BSA-PBS for 1 h and washed with PBST three times. Culture medium was added to the 96-well plate for 1 h and washed with PBST three times. Biotinylated detection antibody was added to the 96-well plate for 1 h and washed with PBST three times. Streptavidin–horseradish peroxidase (HRP) was added to the plate for 20 min and washed with PBST three times. After 20 min of incubation with TMB substrate (Thermo; #002023), TMB oxidation was stopped by adding 2 N H2SO4. The absorbance at 450 nm, 540 nm, and 570 nm was measured using a microplate reader (BioTek; Synergy). The following formula was used to calculate the net signal: OD450nm–(OD540nm + OD570nm)/2.
Fig. 2 SB26019 has anti-inflammatory activity via the accumulation of tubulin monomers. SB26019 (10 μM for 6 h) regulated the mRNA levels (a) and protein levels (b) of downstream genes of NF-κB in BV-2 murine microglial cells more efficiently than the other known tubulin modulators (n = 3). c Both tubulin modulators (10 μM for 6 h) and transient Flag-tagged α-tubulin overexpression increased the total amount of tubulin monomers. d Quantification of the amount of tubulin polymer vs. monomer in (c). Tubulin modulators (10 μM for 6 h) and transient Flag-tagged α-tubulin overexpression proportionally regulated the NF-κB signaling pathway at the mRNA (e) and protein levels f in RAW264.7 murine macrophage cells (n = 3). Data are presented as the mean ± SD (ns, not significant, p > 0.05; *p < 0.05; **p < 0.01; ***p < 0.001).

[3] = tested on: p65 nuclear translocation in J774A.1 and RAW264.7 cells; experiment: p65 nuclear translocation by immunofluorescence staining; type: cell-based, murine; conditions: 10 μM for 1 h, then LPS; LPS alone 80%, basal 40%
Experimental: To monitor p65 translocation, J774A.1 cells were treated with compounds for 1 h, followed by LPS (100 ng/ml) treatment for 30 min. The cells were fixed with 4% paraformaldehyde (Sigma; #158127) in PBS (w/v) for 30 min at room temperature. After washing with 1× PBS (Welgene; ML008-02) three times, the fixed cells were permeabilized with PBS containing 0.1% Triton X-100 for 10 min. The cells were washed with 1× PBS three times and then blocked with 4% bovine serum albumin (MP Biomedicals; #0216006980) in PBS (w/v) for 1 h. The cells were incubated with mouse anti-p65 antibody (Santa Cruz; sc-8008, 1:200 diluted in 1% BSA–PBS) at 4 °C overnight and washed with PBS three times. FITC-labeled goat anti-mouse IgG antibody (Abcam; ab6785, 1:200 diluted in 1% BSA–PBS) was added to the sample and incubated for 1 h at room temperature. The remaining antibodies were finally washed three times with PBS. Nuclei were stained with Hoechst 33342 (Thermo; #62249). The cellular p65 proteins were imaged by fluorescence microscopy (GE Healthcare; Delta Vision) and quantified by the line profiling method.
During activation of the NF-κB signaling pathway, IκB is phosphorylated and degraded by proteasomes. The released p65 from IκB is translocated to the nucleus, inducing the transcription of target genes for inflammatory responses. Therefore, we monitored the translocation of p65 upon SB26019 treatment in J774A.1 and RAW264.7 murine macrophage cells stained with fluorescently labeled antibodies. […]

in vitro = conditions: mouse
Experimental: (§1) A total of 40,000 cells were seeded on a 96-well plate and incubated for 18 h. After 6-, 12- and 24-h compound treatment, 10 μL of EZ-Cytox solution (Dogen; EZ-BULK150) was added to the 96-well plate. After 30 min, the absorbance at 455 nm was measured using a microplate reader (BioTek; Synergy).
(§2) (n=6). Data are presented as the mean ± SD.

tubulin [4] = biological target: T1, tubulin (Homo sapiens, UniProt P07437+P68363); experiment: Cellular thermal shift assay (CETSA); type: cell-based
T1 construct: endogenous in cells

[5] = Cell viability assay (EZ-Cytox); conditions: mouse, BV-2 microglial cells
Experimental: as §1, §2

BV-2 cells = experiment: Cell viability assay (EZ-Cytox); conditions: 10 μM
Experimental: as §1, §2

tubulin [6] = biological target: T2, tubulin (Sus scrofa, UniProt P02550+P02554); experiment: Tubulin polymerization assay; type: biochemical; conditions: 1 μM compound
T2 construct: purchased Cytoskeleton BK006P
Experimental: The tubulin polymerization inhibition efficacy of the compounds was measured by a tubulin polymerization assay kit (Cytoskeleton; BK006P) according to the manufacturer’s manual. Absorbance at 340 nm was measured to observe the formation of tubulin polymers using a microplate reader (Biotek; Synergy).
Supplementary Fig. 4. Tubulin polymerization inhibition by compounds 1–13 (1 μM). In the presence or absence of compounds, tubulin was incubated to polymerize at room temperature. Absorbance at 340 nm was measured in a time-dependent manner for monitoring the rate of tubulin polymerization.
Supplementary Table 2. Tubulin polymerization inhibition of the focused library. Tubulin was incubated with each compound (1 μM) and the tubulin polymerization inhibition was monitored. Vmax was calculated from tubulin polymer generation curve data of Supplementary Fig. 3.

[7] = Mus musculus, BV-2 cells, LPS, read-out: % NO inh. at 10 μM

T2 sequence (P02554 whole entry): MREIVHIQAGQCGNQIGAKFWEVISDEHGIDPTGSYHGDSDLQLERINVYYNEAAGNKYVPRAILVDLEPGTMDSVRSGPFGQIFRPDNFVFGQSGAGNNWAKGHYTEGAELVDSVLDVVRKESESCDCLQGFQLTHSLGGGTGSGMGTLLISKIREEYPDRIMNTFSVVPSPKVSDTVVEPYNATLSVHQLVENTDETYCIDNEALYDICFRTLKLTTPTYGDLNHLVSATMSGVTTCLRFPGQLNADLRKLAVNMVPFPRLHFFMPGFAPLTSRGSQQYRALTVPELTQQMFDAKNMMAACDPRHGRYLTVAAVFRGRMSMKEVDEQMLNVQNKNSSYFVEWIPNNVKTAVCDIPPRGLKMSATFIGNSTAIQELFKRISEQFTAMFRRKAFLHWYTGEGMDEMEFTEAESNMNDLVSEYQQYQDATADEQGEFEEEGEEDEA
T2 sequence (P02550 whole entry): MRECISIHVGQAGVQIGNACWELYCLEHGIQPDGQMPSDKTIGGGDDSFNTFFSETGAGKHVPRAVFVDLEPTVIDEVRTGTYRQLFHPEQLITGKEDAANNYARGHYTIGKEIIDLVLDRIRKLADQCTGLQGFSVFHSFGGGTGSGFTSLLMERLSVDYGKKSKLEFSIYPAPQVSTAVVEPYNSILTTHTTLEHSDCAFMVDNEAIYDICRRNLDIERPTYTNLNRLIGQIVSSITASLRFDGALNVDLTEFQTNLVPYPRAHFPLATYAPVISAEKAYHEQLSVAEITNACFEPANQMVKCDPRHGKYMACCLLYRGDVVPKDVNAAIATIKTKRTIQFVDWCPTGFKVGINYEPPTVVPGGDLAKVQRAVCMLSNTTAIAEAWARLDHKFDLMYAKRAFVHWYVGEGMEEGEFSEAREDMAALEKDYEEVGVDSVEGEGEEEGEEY
T1 sequence (P07437 whole entry): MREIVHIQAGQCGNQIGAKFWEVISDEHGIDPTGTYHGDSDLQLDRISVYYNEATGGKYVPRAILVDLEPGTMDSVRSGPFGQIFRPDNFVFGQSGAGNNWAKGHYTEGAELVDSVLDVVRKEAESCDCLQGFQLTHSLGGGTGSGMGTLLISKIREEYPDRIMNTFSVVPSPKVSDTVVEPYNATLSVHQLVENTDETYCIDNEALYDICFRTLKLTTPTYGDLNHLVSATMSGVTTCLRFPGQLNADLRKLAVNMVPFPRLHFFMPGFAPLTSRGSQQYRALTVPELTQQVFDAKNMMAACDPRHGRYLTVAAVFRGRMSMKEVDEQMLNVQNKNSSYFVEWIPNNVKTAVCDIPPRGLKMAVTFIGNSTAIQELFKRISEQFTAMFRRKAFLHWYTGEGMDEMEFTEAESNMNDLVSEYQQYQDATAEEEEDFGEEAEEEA
T1 sequence (P68363 whole entry): as the sequence (P02550 whole entry) above, with S136L, G232S, A265I, T340S, E358Q counted along it

Structure (SMILES)	% NO inh. at 10 μM ([1]; BV-2 cells, LPS)	IC50 ([1]; BV-2 cells)	% Viab. at 10 μM (BV-2 cells)	also measured
COc1cc2c(c(OC)c1OC)-c1ccc(OC)c(=O)cc1[C@@H](NC(C)=O)CC2 [Colchicine]				inhibition at 10 µM [1, 7]: 51.8%; TNF-α levels compared to that of the DMSO control [2]: < 50%; p65 nuclear translocation in the presence of LPS [3]: < 60%; viability at 10 µM (in vitro): 114%
COc1ccc2c(c1O)OC(C)(C)C=C2c1ccc(Cl)cc1C [Compound 1]				inhibition at 10 µM [1, 7]: 69.4%; inhibition at 10 µM ([1]; Mus musculus, BV-2 microglial cells, read-out: LPS-mediated NO release inhibited down to): 70%; IC50 ([1]; Mus musculus, BV-2 cells): 5.22 µM; Thermal shift of tubulin in CETSA (tubulin [4]): slight thermal sensitization; viability at 10 µM [5]: 102%
COc1ccc2c(c1O)OC(C)(C)C=C2c1ccc(F)cc1C [Compound 2]	65.3%	5.94 µM	105.3%	
COc1ccc2c(c1O)OC(C)(C)C=C2c1ccc(F)cc1 [Compound 3]	9.9%	22.3 µM	88.0%	
COc1ccc2c(c1O)OC(C)(C)C=C2c1ccccc1C [Compound 4]	73.3%	7.19 µM	106.1%	
COc1ccc2c(c1O)OC(C)(C)C=C2c1cc(C)ccc1C [Compound 5]	46.9%	9.89 µM	99.7%	
COc1ccccc1C1=CC(C)(C)Oc2c1ccc(OC)c2O [Compound 6]	87.1%	5.09 µM	113.8%	
COc1ccc2c(c1O)OC(C)(C)C=C2c1cccc2cccnc12 [Compound 7]	98.0%	5.01 µM	101.5%	
COc1ccc2c(c1O)OC(C)(C)C=C2c1cccc2c1sc1ccccc12 [Compound 9]	90.0%	1 µM	103.6%	
COc1ccc2c(c1O)OC(C)(C)C=C2c1cccc2c1Sc1ccccc1S2 [Compound 10]	36.8%	13.1 µM	102.1%	
COc1ccc2c(c1O)OC(C)(C)C=C2c1cccc(-c2ccccc2)c1 [Compound 11]	61.6%	6.71 µM	106.1%	
CCOC(=O)CCC1(C)C=C(c2ccc(Cl)cc2C)c2ccc(OC)c(O)c2O1 (stereo not drawn) [Compound 12]	72.3%	7.45 µM	105.6%	
CCOC(=O)CCC1(C)C=C(c2cccc3c2oc2ccccc23)c2ccc(OC)c(O)c2O1 (stereo not drawn) [Compound 13]	101.2%	1.79 µM	111.4%	
COC(=O)Nc1nc2ccc(C(=O)c3cccs3)cc2[nH]1 [Nocodazole, reference compound]				inhibition at 10 µM [1, 7]: 54.9%; IC50 ([1]; Mus musculus, BV-2 cells): 13.4 µM; TNF-α levels compared to that of the DMSO control [2]: < 50%; p65 nuclear translocation in the presence of LPS [3]: < 60%; Vmax of microtubule polymerization compared to DMSO control (tubulin [6]): reduced Vmax; viability at 10 µM [5]: 93.8%
